Experimental data: patent US12503452B2 (Curza Global, LLC, priority 2019, dated 2025)
Where a name gives a salt, the structure may show the parent alone. Read-outs that look alike come from different tables or passages of the source.

Columns and labels:
[1] = tested on: E. coli S30 extract (bacterial protein synthesis); test: E. coli S30 extract coupled transcription-translation luciferase assay (inhibition of bacterial protein synthesis); format: biochemical; conditions: read-out: S30 IC50 (μM/% inhib.)
Description: E. coli S30 extract: Inhibition of bacterial protein synthesis was determined using the E. coli S30 Extract System for Circular DNA (Promega catalog #L-2010) and Luciferase Assay Reagent (Promega catalog #E1500) with slight modifications to a published protocol. Fyfe, C., Sutcliffe, J. A. and Grossman, T. H. (2012) “Development and characterization of a Pseudomonas aeruginosa in vitro coupled transcription-translation assay system for evaluation of translation inhibitors” J. Microbiol. Methods 90(3), 256-261.
Compounds were serial diluted in 0.5 mL microcentrifuge tubes by mixing and transferring 50 μL from the highest concentration to 50 μL of water, mixing and transferring 50 μL of this 2-fold dilution to 50 μL of water. This mixing and transferring was repeated so that there are a total of 8 tubes with serial dilutions of compound at 10× the desired screening concentration that are ultimately diluted to 1× by the addition of S30 luciferase synthesis mixture. Serial dilutions of compounds were added (2 μL) to wells in a black round bottom 96-well plate. Water (2 μL) was used as a “no inhibitor” control in 4 wells/plate. No DNA control reaction mixture (20 μL; see below) was used as a control in 4 wells/plate for background luminescence. S30 luciferase synthesis mixture (18 μL; see below) was added to wells with compounds or water mixture and incubated at 37° C. for 1 hour. Reactions were stopped by transferring to 4° C. refrigerator for 5 minutes then 25 μL of luciferase activity mix was added. Luminescence was measured using a BioTek Synergy HTX plate reader. % Inhibition was determined relative to no inhibitor controls.
S30 luciferase synthesis mixture:
• 445 μL S30 extract, circular • 712 μL S30 Premix without amino acids • 4.45 μL pBESTluc™ DNA (1 μg/μL) • 78 μL complete amino acid mixture • 267 μL water No DNA control: • 20 μL S30 extract, circular • 32 μL S30 Premix without amino acids • 7 μL complete amino acid mixture • 21 μL water Rabbit Reticulocyte lysate

[2] = biological target: Rabbit Reticulocyte Lysate (eukaryotic protein synthesis); test: Rabbit reticulocyte lysate luciferase assay (inhibition of eukaryotic protein synthesis); format: biochemical; conditions: read-out: Rabbit reticulocyte IC50 (μM/% inhib.)
Description: Inhibition of eukaryotic protein synthesis was determined using the Rabbit Reticulocyte Lysate System, Nuclease-Treated from Promega (catalog #L-4960) with slight modifications to the manufacturer's protocol. Compounds were serial diluted in 0.5 mL microcentrifuge tubes by mixing and transferring 50 μL from the highest concentration to 50 μL of water, mixing and transferring 50 μL of this 2-fold dilution to 50 μL of water. This mixing and transferring was repeated so that there are a total of 8 tubes with serial dilutions of compound at 10× the desired screening concentration that are ultimately diluted to 1× by the addition of rabbit reticulocyte luciferase synthesis mixture. Serial dilutions of compounds were added ([…]) to wells in a black round bottom 96-well plate. Water (2.5 μL) was used as a “no inhibitor” control in 4 wells/plate. No RNA control reaction mixture ([…]; see below) was used as a control in 4 wells/plate for background luminescence. Rabbit reticulocyte luciferase synthesis mixture (22.5 μL; see below) was added to wells with compounds or water mixture and incubated at 30° C. for 90 minutes. Luciferase assay reagent (25 μL) was added with luminescence measured using a BioTek Synergy HTX plate reader. % Inhibition was determined relative to no inhibitor controls.
Rabbit reticulocyte luciferase synthesis mixture:
• 1,000 μL rabbit reticulocyte lysate • 5.7 μL Luciferase Control RNA (1 μg/μL) • 26 μL complete amino acid mixture • 395 μL water No RNA Control • 70 μL rabbit reticulocyte lysate • 2 μL complete amino acid mixture • 28 μL water Minimum Inhibitory Concentration (MIC)

[3] = class by IC50 or % inhibition @ 1 μM

| SMILES | IC50 [1, 3] [µM] | IC50 [2, 3] [µM] | IC50 ([1]; % inhibition @ 1 μM) [µM] | IC50 ([2]; % inhibition @ 1 μM) [µM] |
| --- | --- | --- | --- | --- |
| NC1CCN(Cc2ccc(-n3ccc(NC(=O)N4CCC[C@@H](N)C4)nc3=O)cc2)CC1 [Compound 47] | > 1 | > 1 | – | – |
| CC[C@@H]1CN(C(=O)C(C)(C)N)CCN1C(=O)Nc1ccn(-c2ccc(CN3CCC(N)CC3)cc2)c(=O)n1 [Compound 84] | > 1 | > 1 | – | – |
| CCC1CN(C(=O)Nc2ccn(-c3ccc(CN4CCC(N)CC4)cc3)c(=O)n2)CCN1C(=O)C(C)(C)N (stereo not drawn) [Compound 78] | > 1 | > 1 | – | – |
| CC(C)(N)CC(=O)N1CCN(C(=O)Nc2ccn(-c3cccc(CN4CCC(N)CC4)c3)c(=O)n2)CC1 [Compound 362] | – | – | > 1 | > 1 |
| CC(C)(N)C(=O)N1CCN(C(=O)Nc2ccn(-c3ccc(CN4CCC(N)CC4)cc3)c(=O)n2)C[C@H]1C(=O)O [Compound 81] | > 1 | > 1 | – | – |
| CC1(N)CCN(Cc2ccc(-n3ccc(NC(=O)N4CCN(C(=O)[C@@](C)(N)CO)CC4)nc3=O)cc2Cl)CC1 [Compound 360] | – | – | < 0.5 | > 1 |
| C[C@H](N)C1CCN(Cc2ccc(-n3ccc(NC(=O)N4CCN(C(=O)C(C)(C)N)[C@H](C)C4)nc3=O)cc2)CC1 [Compound 206] | > 1 | > 1 | – | – |
| CC(C)(N)CC(=O)N1CCN(C(=O)Nc2ccn(-c3cccc(CN4CCC(C)(N)CC4)c3)c(=O)n2)CC1 [Compound 363, hydrochloride salt] | – | – | > 1 | > 1 |
| CC(C)(N)C(=O)N1CC2CCC1CN2C(=O)Nc1ccn(-c2ccc(CN3CCC(N)CC3)cc2)c(=O)n1 (stereo not drawn) [Compound 87] | > 1 | > 1 | – | – |
| C[C@@H]1CN(C(=O)C(C)(C)N)[C@H](C)CN1C(=O)Nc1ccn(-c2ccc(CN3CCC(N)CC3)cc2)c(=O)n1 [Compound 88] | > 1 | > 1 | – | – |
| CCC1CN(C(=O)C(C)(C)N)CCN1C(=O)Nc1ccn(-c2ccc(CN3CCC(N)CC3)cc2)c(=O)n1 (stereo not drawn) [Compound 55] | 0.5 to 1 | > 1 | – | – |
| CC(C)(N)C(=O)N1CCN(C(=O)Nc2ccn(-c3cccc(CCN4CC[C@@H](N)C4)c3)c(=O)n2)CC1 [Compound 5] | > 1 | > 1 | – | – |
| CN(C)C1CCCN(CCc2ccc(-n3ccc(NC(=O)N4CCN(C(=O)C(C)(C)N)CC4)nc3=O)cc2)CC1 (stereo not drawn) [Compound 36] | > 1 | > 1 | – | – |
| NC1CCN(Cc2ccc(-n3ccc(NC(=O)N4C[C@H]5CNC[C@H]5C4)nc3=O)cc2)CC1 [Compound 50] | > 1 | > 1 | – | – |
| C[C@](N)(CO)C(=O)N1CCN(C(=O)Nc2ccn(-c3ccc(CCN4CC[C@@H](N)C4)cc3)c(=O)n2)CC1 [Compound 11] | 0.5 to 1 | > 1 | – | – |
| CC[C@H]1CN(C(=O)C(C)(C)N)CCN1C(=O)Nc1ccn(-c2ccc(CN3CCC(N)CC3)cc2)c(=O)n1 [Compound 83] | > 1 | > 1 | – | – |
| CC(C)(N)C(=O)N1CCN(C(=O)Nc2ccn(-c3ccc(C(C)(C)CN4CCCC(N)CC4)cc3)c(=O)n2)CC1 (stereo not drawn) [Compound 37] | > 1 | > 1 | – | – |
| CC(C)(N)C(=O)N1CCN(C(=O)Nc2ccn(-c3ccc(CCN4CCC(CN)CC4)cc3)c(=O)n2)CC1 [Compound 1] | 0.5 to 1 | > 1 | – | – |
| CC(C)[C@H](N)C(=O)NC(C)(C)C(=O)N1CCN(C(=O)Nc2ccn(-c3ccc(CN4CCC(N)CC4)cc3)c(=O)n2)CC1 [Compound 364, hydrochloride salt] | – | – | < 0.5 | > 1 |
| CC(C)(N)C(=O)N1CCN(C(=O)Nc2ccn(-c3ccc(CN4CC(CCN)(C(=O)O)C4)cc3)c(=O)n2)CC1 [Compound 369, hydrochloride salt] | – | – | > 1 | > 1 |
| CC(C)(N)C(=O)N1CCN(C(=O)Nc2ccn(-c3ccc(C(C)(C)CN4CC[C@H](CN)C4)cc3)c(=O)n2)CC1 [Compound 39] | > 1 | > 1 | – | – |

| SMILES | IC50 [1, 3] [µM] | IC50 [2, 3] [µM] | IC50 ([1]; % inhibition @ 1 μM) [µM] | IC50 ([2]; % inhibition @ 1 μM) [µM] |
| --- | --- | --- | --- | --- |
| CC(C)(N)C(=O)N1CCN(Cc2ccc(-n3ccc(NC(=O)N4CCN(C(=O)C(C)(C)N)CC4)nc3=O)cc2)CC1 [Compound 225] | > 1 | > 1 | – | – |
| CC(C)(N)C(=O)N1CCN(C(=O)Nc2ccn(-c3ccc(C4(CN5CCCC(N)CC5)CC4)cc3)c(=O)n2)CC1 (stereo not drawn) [Compound 40] | > 1 | > 1 | – | – |
| Cc1cc(-n2ccc(NC(=O)N3CCN(C(=O)C(C)(C)N)CC3)nc2=O)ccc1CN1CCC(NC(=N)N)CC1 [Compound 104] | < 0.5 | > 1 | – | – |
| C[C@H]1CN(C(=O)Nc2ccn(-c3ccc(CN4CCC(N)CC4)cc3)c(=O)n2)CCN1C(=O)C(C)(C)N [Compound 72] | 0.5 to 1 | > 1 | – | – |
| CC(C)(N)CC(=O)N1CCN(C(=O)Nc2ccn(-c3ccc(CN4CCC(N)CC4)c(C(F)(F)F)c3)c(=O)n2)CC1 [Compound 106] | > 1 | > 1 | – | – |
| C[C@H](N)C(=O)NC1CCN(Cc2ccc(-n3ccc(NC(=O)N4CCN(C(=O)[C@@](C)(N)CO)CC4)nc3=O)cc2)CC1 [Compound 100] | 0.5 to 1 | > 1 | – | – |
| CC(C)(N)C(=O)N1CCN(C(=O)Nc2ccn(-c3ccc(CN4CCC(C(F)(F)F)CC4)cc3)c(=O)n2)CC1 [Compound 107] | > 1 | > 1 | – | – |
| CC(C)(N)C(=O)N1CCN(C(=O)Nc2ccn(-c3ccc(CC[N+]4(C)CCC(N)CC4)cc3)c(=O)n2)CC1 (stereo not drawn) [Compound 196] | < 0.5 | > 1 | – | – |
| C[C@H](N)C1CCN(Cc2ccc(-n3ccc(NC(=O)N4CCN(C(=O)[C@@](C)(N)CO)C[C@H]4C)nc3=O)cc2)CC1 [Compound 207] | > 1 | > 1 | – | – |
| CC(C)(N)C(=O)N1CCCC2C1CCCN2C(=O)Nc1ccn(-c2ccc(CN3CCC(N)CC3)cc2)c(=O)n1 (stereo not drawn) [Compound 86] | > 1 | > 1 | – | – |
| CC(C)(N)C(=O)N1CCN(C(=O)Nc2ccn(-c3cccc(CN4CCC(NC(=N)N)CC4)c3)c(=O)n2)CC1 [Compound 102] | > 1 | > 1 | – | – |
| C[C@](N)(CO)C(=O)N1CCN(C(=O)Nc2ccn(-c3ccc(CCN4CC[C@H](N)C4)cc3)c(=O)n2)CC1 [Compound 13] | > 1 | > 1 | – | – |
| CC1CN(Cc2ccc(-n3ccc(NC(=O)N4CCN(C(=O)[C@@](C)(N)CO)CC4)nc3=O)cc2)CCC1N (stereo in doubt) [Compound 224] | < 0.5 | > 1 | – | – |
| Cc1cc(-n2ccc(NC(=O)N3CCN(C(=O)C(C)(N)CO)CC3)nc2=O)ccc1CN1CCC(N)CC1 (stereo not drawn) [Compound 101] | 0.5 to 1 | > 1 | – | – |
| NC1CCN(Cc2ccc(-n3ccc(NC(=O)N4CCC[C@H](N)C4)nc3=O)cc2)CC1 [Compound 48] | > 1 | > 1 | – | – |
| CC(C)(N)C(=O)N1C[C@@H]2CC1CN2C(=O)Nc1ccn(-c2ccc(CN3CCC(N)CC3)cc2)c(=O)n1 [Compound 80] | 0.5 to 1 | > 1 | – | – |
| CC(C)(N)C(=O)N1CCN(C(=O)Nc2ccn(-c3ccc(CN4CCOC(CN)C4)cc3)c(=O)n2)CC1 (stereo not drawn) [Compound 135] | > 1 | > 1 | – | – |
| CC(C)(N)C(=O)N1CCN(C(=O)Nc2ccn(-c3ccc(CN4CCC(F)(F)CC4)cc3)c(=O)n2)CC1 [Compound 383] | – | – | > 1 | > 1 |
| Cc1cc(-n2ccc(NC(=O)N3CCN(C(=O)CC(C)(C)N)CC3)nc2=O)ccc1CN1CCC(N)CC1 [Compound 94] | > 1 | > 1 | – | – |
| CC[C@@H]1CN(C(=O)Nc2ccn(-c3ccc(CN4CCC(N)CC4)cc3)c(=O)n2)CCN1C(=O)C(C)(C)N [Compound 67] | > 1 | > 1 | – | – |
| NC[C@H]1CCN(C(=O)Nc2ccn(-c3ccc(CN4CCC(N)CC4)cc3)c(=O)n2)C1 [Compound 52] | > 1 | > 1 | – | – |
